Where “and” joins values, the source holds several entries; their conditions need not be identical. Identical values can stand only once. Like-named read-outs stand apart in the source and are kept apart here.
Target: T1, human P2X4 (Homo sapiens, UniProt Q99571)
T1 sequence (Q99571 1-388): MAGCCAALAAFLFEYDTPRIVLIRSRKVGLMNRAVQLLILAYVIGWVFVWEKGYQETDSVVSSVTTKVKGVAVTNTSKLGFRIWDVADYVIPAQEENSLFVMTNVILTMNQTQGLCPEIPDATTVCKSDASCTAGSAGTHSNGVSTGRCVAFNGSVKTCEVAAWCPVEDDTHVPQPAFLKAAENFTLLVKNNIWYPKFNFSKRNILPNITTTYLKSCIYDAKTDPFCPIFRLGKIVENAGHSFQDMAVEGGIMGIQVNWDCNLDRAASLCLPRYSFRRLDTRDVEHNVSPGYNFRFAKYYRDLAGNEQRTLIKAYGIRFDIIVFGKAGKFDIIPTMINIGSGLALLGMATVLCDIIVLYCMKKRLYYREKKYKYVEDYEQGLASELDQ
Experiment: Human P2X4 HEK Cell FLIPR Assay
Format: cell-based
Conditions: agonist Bz-ATP at EC80; for Emax: percentage of maximal inhibition, read-out: Human P2X4 HEK Cells (FLIPR Assay) avg Efficacy [%]; for IC50: individual values listed where some fall outside detection range
Procedure, shortened: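 HEK293 cells stably expressing human P2X4, Fluo8-AM loaded 30 min at 37° C, then compound 30 min at room temperature (0.5% DMSO, pH 7.4 buffer with 1.8 mM CaCl2). Bz-ATP at its daily-determined EC80 added; calcium fluorescence read over 120 sec; IC50 from peak RFU normalized to agonist control, triplicates.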

| SMILES | Emax (HEK293, HEK293 cells) [%] | IC50 (HEK293 cells) | Emax (HEK293 cells) [%] |
| --- | --- | --- | --- |
| NS(=O)(=O)c1cc(NC(=O)Cc2ccccc2Cl)cnc1-n1cc(F)cn1 [Example 385, 2-(2-Chlorophenyl)-N-[6-(4-fluoro-1H-pyrazol-1-yl)-5-sulfamoylpyridin-3-yl]acetamide] | 72 | 47 nM | – |
| NS(=O)(=O)c1cc(NC(=O)Cc2ccccc2F)cnc1-n1cc(Br)cn1 [Example 386, N-[6-(4-Bromo-1H-pyrazol-1-yl)-5-sulfamoylpyridin-3-yl]-2-(2-fluorophenyl)acetamide] | 64 | 76 nM | – |
| NS(=O)(=O)c1cc(NC(=O)Cc2ccccc2F)cnc1-n1cc(Cl)cn1 [Example 388, N-[6-(4-Chloro-1H-pyrazol-1-yl)-5-sulfamoylpyridin-3-yl]-2-(2-fluorophenyl)acetamide] | 68 | 196 nM | – |
| NS(=O)(=O)c1cc(NC(=O)Cc2ccccc2Cl)cnc1-n1cc(Br)cn1 [Example 389, N-[6-(4-Bromo-1H-pyrazol-1-yl)-5-sulfamoylpyridin-3-yl]-2-(2-chlorophenyl)-acetamide] | 77 | 22 nM | – |
| NS(=O)(=O)c1cc(NC(=O)Cc2ccccc2F)ccc1-c1nnc(C(F)(F)F)o1 [Example 390, 2-(2-Fluorophenyl)-N-{3-sulfamoyl-4-[5-(trifluoromethyl)-1,3,4-oxadiazol-2-yl]phenyl}acetamide] | – | 1700 nM | 91 |
| NS(=O)(=O)c1cc(NC(=O)Cc2ccccc2Cl)ccc1-c1nnc(C(F)(F)F)o1 [Example 391, 2-(2-Chlorophenyl)-N-{3-sulfamoyl-4-[5-(trifluoromethyl)-1,3,4-oxadiazol-2-yl]phenyl}acetamide] | 98 | 186 nM | – |
| NS(=O)(=O)c1cc(NC(=O)Cc2ccccc2Cl)ccc1-n1cnc(-c2cccnc2)n1 [Example 392, 2-(2-Chlorophenyl)-N-{4-[3-(pyridin-3-yl)-1H-1,2,4-triazol-1-yl]-3-sulfamoylphenyl}acetamide] | 64 | 9660 nM | – |
| NS(=O)(=O)c1cc(NC(=O)Cc2ccccc2F)ccc1-n1cccn1 [Example 393, 2-(2-Fluorophenyl)-N-[4-(1H-pyrazol-1-yl)-3-sulfamoylphenyl]acetamide] | 49 | – | – |
| CC(C)(C)c1cnn(-c2ccc(NC(=O)Cc3ccccc3Cl)cc2S(N)(=O)=O)c1 [Example 394, N-[4-(4-tert-Butyl-1H-pyrazol-1-yl)-3-sulfamoylphenyl]-2-(2-chlorophenyl)acetamide] | 86 | 740 nM | – |
| NS(=O)(=O)c1cc(NC(=O)Cc2ccccc2Cl)ccc1-n1ncc2ccccc21 [Example 395, 2-(2-Chlorophenyl)-N-[4-(1H-indazol-1-yl)-3-sulfamoylphenyl]acetamide] | 86 | 73 nM | – |
| NS(=O)(=O)c1cc(NC(=O)Cc2ccccc2Cl)ccc1-n1cc2ccccc2n1 [Example 396, 2-(2-Chlorophenyl)-N-[4-(2H-indazol-2-yl)-3-sulfamoylphenyl]acetamide] | 44 | 9.58 µM and > 25 µM (4×) | – |
| NS(=O)(=O)c1cc(NC(=O)Cc2ccccc2F)ccc1-n1cc2ccccc2n1 [Example 397, 2-(2-Fluorophenyl)-N-[4-(2H-indazol-2-yl)-3-sulfamoylphenyl]acetamide] | 43 | > 25000 nM | – |
| NS(=O)(=O)c1cc(NC(=O)Cc2ccccc2F)ccc1-n1ncc2ccccc21 [Example 398, 2-(2-Fluorophenyl)-N-[4-(1H-indazol-1-yl)-3-sulfamoylphenyl]acetamide] | 57 | 207 nM | – |
| CN(C)C(=O)c1cnn(-c2ccc(NC(=O)Cc3ccccc3Cl)cc2S(N)(=O)=O)c1 [Example 399, 1-(4-{[(2-Chlorophenyl)acetyl]amino}-2-sulfamoylphenyl)-N,N-dimethyl-1H-pyrazole-4-carboxamide] | 92 | 84 nM | – |
| NS(=O)(=O)c1cc(NC(=O)Cc2ccccc2Cl)ccc1-n1cc(NC(=O)C2CC2)cn1 [Example 400, N-[1-(4-{[(2-Chlorophenyl)acetyl]amino}-2-sulfamoylphenyl)-1H-pyrazol-4-yl]cyclopropanecarboxamide] | 88 | 87 nM | – |
| NS(=O)(=O)c1cc(NC(=O)Cc2ccccc2Cl)ccc1-n1cc(-c2cnccn2)cn1 [Example 401, 2-(2-Chlorophenyl)-N-{4-[4-(pyrazin-2-yl)-1H-pyrazol-1-yl]-3-sulfamoylphenyl}acetamide] | 82 | 23 nM | – |

| SMILES | Emax (HEK293, HEK293 cells) [%] | IC50 (HEK293 cells) | Emax (HEK293 cells) [%] |
| --- | --- | --- | --- |
| NS(=O)(=O)c1cc(NC(=O)Cc2ccccc2Cl)ccc1-n1cc(-c2ccccn2)cn1 [Example 402, 2-(2-Chlorophenyl)-N-{4-[4-(pyridin-2-yl)-1H-pyrazol-1-yl]-3-sulfamoylphenyl}acetamide] | 85 | 41 nM | – |
| NS(=O)(=O)c1cc(NC(=O)Cc2ccccc2Cl)ccc1-n1cc(-c2cccnc2)cn1 [Example 403, 2-(2-Chlorophenyl)-N-{4-[4-(pyridin-3-yl)-1H-pyrazol-1-yl]-3-sulfamoylphenyl}acetamide] | 88 | 16 nM | – |
| NS(=O)(=O)c1cc(NC(=O)Cc2ccccc2Cl)ccc1-n1cc(-c2ccncn2)cn1 [Example 404, 2-(2-Chlorophenyl)-N-{4-[4-(pyrimidin-4-yl)-1H-pyrazol-1-yl]-3-sulfamoylphenyl}acetamide] | 73 | 175 nM | – |
| NS(=O)(=O)c1cc(NC(=O)Cc2ccccc2F)ccc1-n1cc(-c2ccncn2)cn1 [Example 405, 2-(2-Fluorophenyl)-N-{4-[4-(pyrimidin-4-yl)-1H-pyrazol-1-yl]-3-sulfamoylphenyl}acetamide] | 65 | 5670 nM | – |
| COc1ccc(CC(=O)Nc2ccc(-n3ncc(C(F)(F)F)n3)c(S(N)(=O)=O)c2)cc1 [Example 406, 2-(4-Methoxyphenyl)-N-{3-sulfamoyl-4-[4-(trifluoromethyl)-2H-1,2,3-triazol-2-yl]phenyl}acetamide] | 64 | 6840 nM | – |
| COc1ccc(CC(=O)Nc2ccc(-n3cc(C(F)(F)F)nn3)c(S(N)(=O)=O)c2)cc1 [Example 407, 2-(4-Methoxyphenyl)-N-{3-sulfamoyl-4-[4-(trifluoromethyl)-1H-1,2,3-triazol-1-yl]phenyl}acetamide] | 86 | 429 nM | – |
| Cc1ccc(CC(=O)Nc2ccc(-n3ncc(C(F)(F)F)n3)c(S(N)(=O)=O)c2)cc1 [Example 408, 2-(4-Methylphenyl)-N-{3-sulfamoyl-4-[4-(trifluoromethyl)-2H-1,2,3-triazol-2-yl]phenyl}acetamide] | 74 | 2640 nM | – |
| Cc1ccc(CC(=O)Nc2ccc(-n3cc(C(F)(F)F)nn3)c(S(N)(=O)=O)c2)cc1 [Example 409, 2-(4-Methylphenyl)-N-{3-sulfamoyl-4-[4-(trifluoromethyl)-1H-1,2,3-triazol-1-yl]phenyl}acetamide] | 85 | 445 nM | – |
| NS(=O)(=O)c1cc(NC(=O)Cc2ccc(C(F)F)cc2)ccc1-n1ncc(C(F)(F)F)n1 [Example 410, 2-[4-(Difluoromethyl)phenyl]-N-{3-sulfamoyl-4-[4-(trifluoromethyl)-2H-1,2,3-triazol-2-yl]phenyl}acetamide] | 69 | 5450 nM | – |
| NS(=O)(=O)c1cc(NC(=O)Cc2ccc(C(F)F)cc2)ccc1-n1cc(C(F)(F)F)nn1 [Example 411, 2-[4-(Difluoromethyl)phenyl]-N-{3-sulfamoyl-4-[4-(trifluoromethyl)-1H-1,2,3-triazol-1-yl]phenyl}acetamide] | 90 | 84 nM | – |
| NS(=O)(=O)c1cc(NC(=O)Cc2ccccc2F)ccc1-n1ncc(C(F)(F)F)n1 [Example 412, 2-(2-Fluorophenyl)-N-{3-sulfamoyl-4-[4-(trifluoromethyl)-2H-1,2,3-triazol-2-yl]phenyl}acetamide] | 68 | 1590 nM | – |
| NS(=O)(=O)c1cc(NC(=O)Cc2ccccc2F)ccc1-n1cc(C(F)(F)F)nn1 [Example 413, 2-(2-Fluorophenyl)-N-{3-sulfamoyl-4-[4-(trifluoromethyl)-1H-1,2,3-triazol-1-yl]phenyl}acetamide] | 89 | 74 nM | – |
| NS(=O)(=O)c1cc(NC(=O)Cc2ccc(C(F)(F)F)cc2Cl)ccc1-n1ncc(C(F)(F)F)n1 [Example 414, 2-[2-Chloro-4-(trifluoromethyl)phenyl]-N-{3-sulfamoyl-4-[4-(trifluoromethyl)-2H-1,2,3-triazol-2-yl]phenyl}acetamide] | 20 | > 25000 nM | – |
| NS(=O)(=O)c1cc(NC(=O)Cc2ccc(C(F)(F)F)cc2Cl)ccc1-n1cc(C(F)(F)F)nn1 [Example 415, 2-[2-Chloro-4-(trifluoromethyl)phenyl]-N-{3-sulfamoyl-4-[4-(trifluoromethyl)-1H-1,2,3-triazol-1-yl]phenyl}acetamide] | 69 | 200 nM | – |
| NS(=O)(=O)c1cc(NC(=O)Cc2ccc(Cl)cc2Cl)ccc1-n1ncc(C(F)(F)F)n1 [Example 416, 2-(2,4-Dichlorophenyl)-N-{3-sulfamoyl-4-[4-(trifluoromethyl)-2H-1,2,3-triazol-2-yl]phenyl}acetamide] | 51 | 8.3 µM and 17.8 µM and > 25 µM (2×) | – |

From patent US11524938B2, “Aromatic sulfonamide derivatives” (Bayer Pharma Aktiengesellschaft, priority 2016, dated 2022)
